Reference: patent publication US10696623B2, “Phenolic acid derivative compound and use thereof” (DAEBONG LS, LTD, priority 2015, dated 2020)

Test: DPPH radical scavenging activity (antioxidant effect)
Assay type: biochemical
Details: 0.2 mM DPPH in methanol, 10 min at room temperature, absorbance 517 nm; compared with ascorbic acid (FIG. 1)
Description: The 1,1-diphenyl-2-picrylhydrazyl (DPPH) radical scavenging activities of the phenolic acid derivative compounds prepared in Examples 1-5 were measured to evaluate the antioxidant activities of the compounds against free radicals. Ascorbic acid was used as a positive control.
1,1-Diphenyl-2-picrylhydrazyl (DPPH) radical was purchased from Sigma Chemical Co. (USA) and L-ascorbic acid purchased from Sigma (USA) were used for testing.
100 μl of a 0.2 mM DPPH solution in methanol and 100 μl of each of the compounds at different concentrations were prepared in a 96-well plate. After the reaction was allowed to proceed at room temperature for 10 min, the absorbance of each sample was measured at 517 nm.

In the case of CCOC(=O)[C@H](Cc1ccccc1)NC(=O)c1cc(O)c(O)c(O)c1 [Example 1, (S)-ethyl-3-phenyl-2-(3,4,5-trihydroxybenzamido)propanoate], the “DPPH radical scavenging activity (antioxidant activity)” value is reported as “high activity compared to the control ascorbic acid”.
